Our source for the EC50 values is PubChem BioAssay AID1956 (SRMLSC, 2009).

Calls of active or inactive are those of the source. Rule as the data show it: active = maximum fold increase above about 1.5; inconclusive = no clear call, values can overlap the other calls; inactive = below that; tested in PC3 cells.

The assay relates to HSV replication augmentation in cells, fold increase. Briefly: enhancers of HSV replication in host cells, fold increase, host cell viability (AID 1956).
For `COc1ccc(C2C(C#N)=C(N)N(c3sc4c(c3C#N)CCCC4)C3=C2C(=O)CC(C)(C)C3)cc1` (stereo not drawn), the EC50 is > 25 µM (inactive).
Consider `O=C(O)/C(=C\c1ccc(Br)cc1)c1ccc(S(=O)(=O)N2CCCCC2)s1`, for which the EC50 is > 25 µM (inactive).
For the compound `CCCCn1ccnc1C(=O)c1cccc(S(=O)(=O)N2CC(C)CC(C)C2)c1` (stereo not drawn), the EC50 was > 25 µM (inactive).
